The record followed here is PubChem BioAssay AID1996.

≈ marks a conversion by molar mass, not a printed value.

For this data set the following is noted: buffer; pH 7.4; 200.0 µM.
In general, solubility (kinetic) refers to solubility judged after dilution from a stock solution rather than from solid. For the compound `O=C(NCCCN1CCOCC1)C1Cc2c(ccc3ccccc23)O1` (stereo not drawn), the kinetic solubility is above 51.1 µg/mL.

Regarding `Cc1noc(C)c1C(=O)Nc1nc2ccc(Cl)cc2s1`, the kinetic solubility was determined as 2.1 µg/mL (≈ 6.82 µM). Then `CCN1CCc2c(OCc3ccc(C)cc3)cccc2C1=O`, with 18.9 µg/mL (≈ 64 µM); and `NC(=O)c1ccc(NC(=O)COC(=O)CC23CC4CC(CC(Br)(C4)C2)C3)cc1`, with above 67.4 µg/mL. Then `CCOC(=O)N1CCc2c(sc(N)c2C#N)C1`, with 31.2 µg/mL (≈ 124 µM); and `CCCCS(=O)(=O)N1CCCC(C(=O)N2CCOCC2)C1` (stereo not drawn), with 42.4 µg/mL (≈ 133 µM); and `CC(C)N(Cc1ccccc1)C(=O)COc1ccccc1`, with 36.6 µg/mL (≈ 129 µM). On to `O=[N+]([O-])c1cccnc1Sc1ccc(Br)cc1`, for which the solubility (kinetic) turned out to be 1.7 µg/mL (≈ 5.46 µM). `O=C(Nc1cccc(S(=O)(=O)N2CCCCC2)c1)c1ccc(Cl)nc1` returned a solubility (kinetic) of 4.4 µg/mL (≈ 11.6 µM). With `Cc1ccc(/C=C2\C(=O)NC(=S)N(c3cccc(F)c3)C2=O)o1` the figure was 43.1 µg/mL (≈ 130 µM); with `COc1cccc(-c2cc(C(=O)N3CCOCC3)no2)c1`, above 43.2 µg/mL; with `COc1ccccc1NC(=O)Nc1ccc(N2CCOCC2)cc1`, 45.8 µg/mL (≈ 140 µM). In turn, `COC(=O)c1ccccc1NC(=O)c1ccc2c(c1)CC(C)O2` (stereo not drawn) displayed a kinetic solubility of 2.4 µg/mL (≈ 7.71 µM). Then `COCCN(C(=S)Nc1ccccc1C)C(C)c1ccco1` (stereo not drawn), with 45.7 µg/mL (≈ 144 µM); and `OCCNc1nc(Cl)nc(NCc2ccco2)n1`, with above 40.5 µg/mL; and `O=S(=O)(NCCOc1ccccc1F)c1ccc(Cl)cc1F`, with 5.7 µg/mL (≈ 16.4 µM). With `Cc1ccc(C)c(NC(=O)C(CC(=O)O)Cc2ccccc2)c1` (stereo not drawn) the figure was above 46.7 µg/mL; with `O=C(COC(=O)C1CC2C=CC1C2)Nc1ccc([N+](=O)[O-])cc1` (stereo not drawn), above 47.4 µg/mL. With `CC(C)(C)C(=O)Cn1ncc(N2CCOCC2)c(Cl)c1=O` the figure was above 47.1 µg/mL; with `CCOC(=O)/C(C#N)=C/c1cccn1-c1ccc(Cl)cc1`, below 0.3 µg/mL; with `Cn1c(=S)[nH]c2c(c1=O)C(C)(C)Cc1ccccc1-2`, 3 µg/mL (≈ 11 µM).

In turn, `S=C(NCCc1ccccc1)N1CCCC1` displayed a solubility (kinetic) above 35.2 µg/mL. Then `CCOC(=O)CN1C(=O)c2ccccc2Sc2ncccc21`, with above 47.2 µg/mL. Turning to `Cc1ccc(S(=O)(=O)NCC(=O)OCCOc2ccccc2F)cc1`, the solubility (kinetic) came out at 21.5 µg/mL (≈ 58.5 µM). With `CCc1ccc(OCC(=O)N2CC(C(N)=O)Oc3ccccc32)cc1` (stereo not drawn), the solubility (kinetic) stood at 45.1 µg/mL (≈ 132 µM). Then `N[C@@H](Cc1c[nH]c2ccc(O)cc12)C(=O)O`, with 32.6 µg/mL (≈ 148 µM); and `CC(O)c1nc2ccccc2n1CCCc1ccccc1` (stereo not drawn), with above 42.1 µg/mL. In turn, `CCOc1ccccc1C(=O)Nc1cccc2cccnc12` gave a kinetic solubility below 0.3 µg/mL. Then `NC(=O)c1ccc(C2SCC(=O)N2CCc2ccccc2)cc1` (stereo not drawn), with above 49 µg/mL; and `CSCCC1NC(=O)N(CC(=O)Nc2cc(C)on2)C1=O` (stereo not drawn), with above 46.9 µg/mL. Then `CC(C)c1ccc(N2C(=O)C3C4C=CC(CC4)C3C2=O)cc1` (stereo not drawn), with 2.7 µg/mL (≈ 9.14 µM); and `NC1=NC(=O)/C(=C/c2ccsc2)S1`, with 19.5 µg/mL (≈ 92.7 µM); and `CCN1CCN(C/C(C)=C/c2ccccc2)CC1`, with 27.2 µg/mL (≈ 111 µM). Then `Cc1cccc(NC(=O)CCCc2ccccc2)c1C`, with below 0.6 µg/mL; and `CN(C)/C=C1/NC(=S)NC1=O`, with above 25.7 µg/mL; and `Cc1ccc(CNC(=O)CCSCc2ccc(C)cc2)cc1`, with 14.3 µg/mL (≈ 45.6 µM). In turn, `Cc1ccc(O)c(NC(=O)c2cc([N+](=O)[O-])ccc2Cl)c1` yielded a solubility (kinetic) of 8.5 µg/mL (≈ 27.7 µM).

Compound `COc1cccc(Oc2ccc(C(F)(F)F)cc2NC(=O)C2=COCCO2)c1` showed a kinetic solubility of 1.5 µg/mL (≈ 3.79 µM).

`Cc1ccc(NC(=S)N2CCN(S(C)(=O)=O)CC2)cc1C`: the solubility (kinetic) was 9.1 µg/mL (≈ 27.8 µM). With `CCc1ccc(OS(=O)(=O)c2cn(C)c(=O)n(C)c2=O)cc1` the figure was above 48.7 µg/mL. `CCN1C(=O)CSC1=Nc1cccc(C(=O)O)c1` came in with a solubility (kinetic) above 39.6 µg/mL. With `COCCNC(=O)COC(=O)C1=Cc2ccccc2OC1` the figure was above 43.7 µg/mL. With `COc1ccc(CN(C)CC(=O)Nc2cccc3ccccc23)cc1F` the figure was 15.1 µg/mL (≈ 42.8 µM); with `CN(CC(=O)Nc1cccc(F)c1)CC(=O)N(C)c1c(N)n(Cc2ccccc2)c(=O)[nH]c1=O`, above 70.3 µg/mL.

Regarding `Cc1ccccc1OCC(=O)OCC(=O)NCc1ccccc1`, the solubility (kinetic) is above 47 µg/mL.

In turn, `CCC1Oc2ccc(C)cc2N(CC(=O)N2CCCC2)C1=O` (stereo not drawn) gave a kinetic solubility above 45.4 µg/mL. Then `CC1CCC(NC(=O)CNC(=O)c2cccs2)CC1` (stereo not drawn), with above 42.1 µg/mL; and `Cc1ccc(NC(=O)OCCNC(=O)OC(C)C)cc1`, with 33.1 µg/mL (≈ 118 µM).

`CCn1cnc2c(oc3ccccc32)c1=O` gave a solubility (kinetic) of 31.9 µg/mL (≈ 149 µM). Then `COc1ccc(/C=C/C(=O)N(C)c2ccccc2C(=O)O)cc1`, with 45.2 µg/mL (≈ 145 µM). Then `CCOc1ccc(CNC(=O)c2ccco2)cc1`, with above 36.8 µg/mL. Then `Cc1ccc(OCC(=O)Nc2ccc3c(c2)C(=O)NC3=O)c(C)c1`, with 0.6 µg/mL (≈ 1.85 µM); and `O=C1NC(=Nc2ccc(O)cc2)S/C1=C\C=C\c1ccco1`, with 4.7 µg/mL (≈ 15 µM). The compound `N#Cc1ccccc1OCC(=O)Nc1ccc2c(c1)OCCCO2` yielded a kinetic solubility above 48.7 µg/mL.

`COc1cc(Cl)c(S(=O)(=O)N2CCCC2)cc1Cl`: the solubility (kinetic) stood at 42.1 µg/mL (≈ 136 µM). With `Cc1cc(C)cc(OCC(=O)O/N=C(\N)c2cccnc2)c1` the figure was 38.3 µg/mL (≈ 128 µM); with `NC(=O)c1ccccc1N=Cc1cccnc1`, above 33.8 µg/mL; with `CCN(CC)C(=S)SCC(=O)Nc1ncc2c(n1)CC(C)(C)CC2=O`, 2.1 µg/mL (≈ 5.52 µM). Then `CS(=O)(=O)N1CCN(C(=O)Cc2ccc([N+](=O)[O-])cc2)CC1`, with 49 µg/mL (≈ 150 µM). With `Cc1ccc(OCc2ccc(C(=O)NN)o2)c([N+](=O)[O-])c1` the figure was above 43.7 µg/mL; with `O=C(NC1CCCCC1)c1ccc2c(c1)OCO2`, above 37.1 µg/mL; with `COc1cccc(NC(=O)c2ccccc2Br)c1`, above 45.9 µg/mL.

The compound `Cc1ccc(CN(C)c2ccc(S(=O)(=O)N3CCCC3)cn2)cc1` came in with a kinetic solubility of 12.5 µg/mL (≈ 36.2 µM). With `O=[N+]([O-])c1cc(CN2CCC(O)CC2)ccc1Cl` the figure was 38.9 µg/mL (≈ 144 µM).

`COc1ccc(N2CCN(c3ccc([N+](=O)[O-])nc3)CC2)cc1` displayed a kinetic solubility of 3 µg/mL (≈ 9.54 µM). For the compound `Br.Clc1ccc(CNCC2CCCO2)cc1` (stereo not drawn), the solubility (kinetic) was above 46 µg/mL. Then `Cc1nc(Nc2ccc(O)cc2)c2c3c(sc2n1)CCCC3`, with 12.9 µg/mL (≈ 41.4 µM); and `COC(=O)C1CCN(C(=O)COC(=O)c2cc(S(=O)(=O)N3CCOCC3)ccc2C)CC1`, with above 70.3 µg/mL; and `Cc1cc2nc3c(=O)n(C4CCCCC4)c(=O)[nH]c3nc2cc1N`, with 2.8 µg/mL (≈ 8.61 µM). With `Cc1ccc(C(=O)Cn2c(C(=O)O)cc3ccccc32)cc1` the figure was above 44 µg/mL; with `COCCn1c(C)cc(/C=C2/SC(=O)N(C(C)C(=O)OC)C2=O)c1C` (stereo not drawn), 36 µg/mL (≈ 98.2 µM); with `CC1(C)Cc2nc3oc4c(SCC(N)=O)ncnc4c3cc2CO1`, 17.8 µg/mL (≈ 51.7 µM).

Take `COc1ccc(NC(=O)CS(=O)c2ccccc2Cl)cc1` (stereo not drawn): the kinetic solubility is above 48.6 µg/mL. As for `COc1ccc(-c2nc(N)nc(C(F)(F)F)c2-c2csc(C)n2)c(O)c1`, the solubility (kinetic) worked out at 2.6 µg/mL (≈ 6.8 µM). `CCC1(c2ccccc2)NC(=O)N(CC(=O)Nc2ccc(N3CCOCC3)cc2)C1=O` (stereo not drawn) came in with a kinetic solubility above 63.4 µg/mL. With `O=C(COc1ccccc1Cl)NCCNC(=O)c1ccco1` the figure was 47.3 µg/mL (≈ 147 µM); with `Cc1ccc(NS(=O)(=O)N2CCOCC2)c(C)c1`, above 40.6 µg/mL; with `O=C(NC1CCCCC1)c1ccc2[nH]c(=O)c(=O)[nH]c2c1`, above 43.1 µg/mL. Then `O=C(COC(=O)c1ccccn1)Nc1ccc2c(c1)OCCO2`, with 44.4 µg/mL (≈ 141 µM); and `O=C(Nc1ccccc1C(=O)N1CCCCC1)c1ccco1`, with above 44.8 µg/mL; and `CCCCn1c(N)c(N(C)C(=O)C2CC(=O)N(Cc3ccco3)C2)c(=O)[nH]c1=O` (stereo not drawn), with above 60.5 µg/mL. With `Cc1ccc2c(c1)C1CN(C)CCC1N2S(=O)(=O)c1ccccc1F` (stereo not drawn) the figure was above 54.1 µg/mL; with `COc1ccc(OC)c(CCNC(=O)CCc2cn(C)c3ccccc23)c1`, 30.6 µg/mL (≈ 83.5 µM); with `CC(C)(C)Nc1nc(-c2ccccn2)nc2ccccc12`, above 41.8 µg/mL.

Turning to `OC(C#CCCN1CCCCC1)(c1ccccc1)C1CCCCC1` (stereo not drawn), the kinetic solubility was 25.1 µg/mL (≈ 77.1 µM). With `Cc1ccc(S(=O)(=O)Nc2cc3c4c(c2)CC(=O)N4CCC3)cc1` the figure was 8.6 µg/mL (≈ 25.1 µM); with `COC(=O)c1ccccc1Oc1ccc(NC(=O)CCCl)cc1`, above 50.1 µg/mL; with `O=C(Nc1ccc(Oc2cccc(C(F)(F)F)c2)nc1)c1ccco1`, 1.2 µg/mL (≈ 3.45 µM). With `CCOC(=O)Cc1csc(NC(=O)CCCC(=O)O)n1` the figure was above 45 µg/mL; with `OC(CNCCNc1ncccc1C(F)(F)F)COc1ccc(F)cc1` (stereo not drawn), 50.9 µg/mL (≈ 136 µM); with `O=C(CN1CCc2ccccc2C1)Nc1ccccc1F`, 39.4 µg/mL (≈ 139 µM).

Take `CN(Cc1nc2ccccc2c(=O)[nH]1)C(=O)c1cccc(NC(=O)c2cccs2)c1`: the solubility (kinetic) was above 62.8 µg/mL.

For the compound `CC(=O)Nc1ccccc1OCC(=O)NCC(F)(F)F`, the solubility (kinetic) turned out to be 43.2 µg/mL (≈ 149 µM). Compound `CCOc1ccc(N/C=C/C(=O)c2ccccc2)cc1` returned a solubility (kinetic) of 0.8 µg/mL (≈ 2.99 µM). This solubility kinetic lies about 54-fold lower than the previous one. With `CC(C)(C)c1ccc(C(=O)n2cnc3ccccc32)cc1` the figure was 34.1 µg/mL (≈ 123 µM); with `OCCN(CC#CCn1c2ccccc2c2ccccc21)CCO`, above 48.4 µg/mL. Then `Cc1cccc(N2Cc3ccc(Br)cc3C2)c1`, with 4.8 µg/mL (≈ 16.7 µM); and `COc1cc(C(=O)OCC#N)ccc1OCc1c(C)noc1C`, with 4 µg/mL (≈ 12.6 µM); and `Cc1cnc(C(=O)OCC(=O)c2ccc(Cl)cc2)cn1`, with above 43.6 µg/mL. In turn, `CC(C)Cc1ccc(C(C)C(N)=NCCc2ccccc2)cc1.Cl` (stereo not drawn) yielded a solubility (kinetic) of 51.3 µg/mL. With `Cc1cc(C)cc(N2CC(O)Cn3c2nc2c3c(=O)[nH]c(=O)n2C)c1` (stereo not drawn) the figure was 34.3 µg/mL (≈ 100 µM); with `Cc1ccc(CSCc2ccc(C(=O)NC3CCCC3)o2)cc1`, 1.9 µg/mL (≈ 5.77 µM); with `CC1(C)CC(=O)C2=C(C1)NC(=O)NC2c1ccccc1` (stereo not drawn), 39.9 µg/mL (≈ 148 µM).
